# Like-named read-outs stand apart in the source and are kept apart here.
# Columns and labels:
# Assay type in all cases: cell-based
# [1] = test system: non-small-cell lung cancer cells (Calu1); assay: In vitro potency (CellTiter-Glo, 96 h), Calu1; details: Homo sapiens, Calu-1, 96 h, Table 28; CPT free drugs; non-small-cell lung cancer cells Calu1; 96 h, CellTiter-Glo; read-out: Calu1 IC50
# Description: (§1) In vitro potency was assessed on multiple cancer cell lines. All cell lines were authenticated by STR profiling at IDEXX Bioresearch and cultured for no more than 2 months after resuscitation. Cells cultured in log-phase growth were seeded for 24 hours in 96-well plates containing […] RPMI 1640 supplemented with 20% FBS. Serial dilutions of antibody-drug conjugates in cell culture media were prepared at 4× working concentrations, and 50 μL of each dilution was added to the 96-well plates. Following addition of test articles, cells were incubated with test articles for 4 days at 37 0° C. After 96 hours, growth inhibition was assessed by CellTiterGlo® (Promega, Madison, WI) and luminescence was measured on a plate reader.
# (§2) In Table 7, IC50 values for ADCs are given in ng/mL. Cell viability was determined by CellTiter-Glo staining after 96 h exposure to ADC. ND=Not Determined. Ag2 is an antibody targeting a ubiquitous and readily internalizable antigen. The cancer cell lines tested are renal carcinoma cells (786-0), melanoma cells (A2058), pancreatic cancer cells (BxPC3), non-small-cell lung cancer cells (Calu1), anaplastic large cell lymphoma cells (DEL, DELBVR, Karpas299), Hodgkin's lymphoma cells (L540cy), (Ls174T), breast cancer cells (MDA-MB-231), acute myeloid leukemia cells (MOLM-13), and B-lymphocyte cancer cells (SU-DHL4).
# as §1, with “FBS.” for “FBS. Serial dilutions of antibody-drug conjugates in cell culture media were prepared at 4× working concentrations, and 50 μL of each dilution was added to the 96-well plates.”
# (§3) Cell viability was determined by CellTiter-Glo staining after 96 h exposure to the compound. ND=Not Determined. The cancer cell lines tested are renal carcinoma cells (786-0), melanoma cells (A2058), pancreatic cancer cells (BxPC3), non-small-cell lung cancer cells (Calu1), anaplastic large cell lymphoma cells (DEL, DELBVR, Karpas299), Hodgkin's lymphoma cells (L540cy), (Ls 174T), breast cancer cells (MDA-MB-231), acute myeloid leukemia cells (MOLM-13), B-lymphocyte cancer cells (SU-DHL4), multiple myeloma cells (MM.1R), (U266), and melanoma cells (SK-MEL-5).
# as §1, with “37°” for “37 0°”
# (§4) In the following Tables IC50 values for ADCs and CPT free drugs are given in ng/mL and nmol/L concentrations. Cell viability was determined by CellTiter-Glo staining after 96 h exposure to ADC or CPT free drug.
# (§5) Cell viability was determined by CellTiter-Glo staining after 96 h exposure to ADC. ND=Not Determined.
# melanoma cells (A2058) = assay: In vitro potency (CellTiter-Glo, 96 h), A2058; details: Homo sapiens, A2058, 96 h, read-out: A2058 IC50
# Description: as §1, §2
# as §1, with “FBS.” for “FBS. Serial dilutions of antibody-drug conjugates in cell culture media were prepared at 4× working concentrations, and 50 μL of each dilution was added to the 96-well plates.”
# as §3
# as §1, with “37°” for “37 0°”
# as §4, §5
# [2] = test system: renal carcinoma cells (786-O); assay: In vitro potency (CellTiter-Glo, 96 h), 786-O; details: Homo sapiens, 786-0, 96 h
# Description: as §1, §2
# as §1, with “FBS.” for “FBS. Serial dilutions of antibody-drug conjugates in cell culture media were prepared at 4× working concentrations, and 50 μL of each dilution was added to the 96-well plates.”
# as §3
# as §1, with “37°” for “37 0°”
# as §4, §5
# [3] = test system: Hodgkin's lymphoma cells (L540cy); assay: In vitro potency (CellTiter-Glo, 96 h), L540cy
# Description: as §1, §2
# as §1, with “FBS.” for “FBS. Serial dilutions of antibody-drug conjugates in cell culture media were prepared at 4× working concentrations, and 50 μL of each dilution was added to the 96-well plates.”
# as §3
# as §1, with “37°” for “37 0°”
# as §4, §5
# [4] = test system: B-lymphocyte cancer cells (SU-DHL4); assay: In vitro potency (CellTiter-Glo, 96 h), SU-DHL-4; details: Homo sapiens, SU-DHL-4, 96 h
# Description: as §1, §2
# as §1, with “FBS.” for “FBS. Serial dilutions of antibody-drug conjugates in cell culture media were prepared at 4× working concentrations, and 50 μL of each dilution was added to the 96-well plates.”
# as §3
# as §1, with “37°” for “37 0°”
# as §4, §5
# [5] = test system: acute myeloid leukemia cells (MOLM-13); assay: In vitro potency (CellTiter-Glo, 96 h), MOLM-13; details: Homo sapiens, MOLM-13, 96 h
# Description: as §1, §2
# as §1, with “FBS.” for “FBS. Serial dilutions of antibody-drug conjugates in cell culture media were prepared at 4× working concentrations, and 50 μL of each dilution was added to the 96-well plates.”
# as §3
# as §1, with “37°” for “37 0°”
# as §4, §5
# Ls174T cells = assay: In vitro potency (CellTiter-Glo, 96 h), Ls174T; details: Homo sapiens, LS174T, 96 h
# Description: as §1, §2
# as §1, with “FBS.” for “FBS. Serial dilutions of antibody-drug conjugates in cell culture media were prepared at 4× working concentrations, and 50 μL of each dilution was added to the 96-well plates.”
# as §3
# as §1, with “37°” for “37 0°”
# as §4, §5
# [6] = test system: anaplastic large cell lymphoma cells (DEL); assay: In vitro potency (CellTiter-Glo, 96 h), DEL
# Description: as §1, §2
# as §1, with “FBS.” for “FBS. Serial dilutions of antibody-drug conjugates in cell culture media were prepared at 4× working concentrations, and 50 μL of each dilution was added to the 96-well plates.”
# as §3
# as §1, with “37°” for “37 0°”
# as §4, §5
# [7] = test system: anaplastic large cell lymphoma cells (DELBVR); assay: In vitro potency (CellTiter-Glo, 96 h), DELBVR
# Description: as §1, §2
# as §1, with “FBS.” for “FBS. Serial dilutions of antibody-drug conjugates in cell culture media were prepared at 4× working concentrations, and 50 μL of each dilution was added to the 96-well plates.”
# as §3
# as §1, with “37°” for “37 0°”
# as §4, §5
# [8] = test system: breast cancer cells (MDA-MB-231); assay: In vitro potency (CellTiter-Glo, 96 h), MDA-MB-231; details: Homo sapiens, MDA-MB-231, 96 h
# Description: as §1, §2
# as §1, with “FBS.” for “FBS. Serial dilutions of antibody-drug conjugates in cell culture media were prepared at 4× working concentrations, and 50 μL of each dilution was added to the 96-well plates.”
# as §3
# as §1, with “37°” for “37 0°”
# as §4, §5
# [9] = test system: anaplastic large cell lymphoma cells (Karpas299); assay: In vitro potency (CellTiter-Glo, 96 h), Karpas299; details: Homo sapiens, KARPAS-299, 96 h
# Description: as §1, §2
# as §1, with “FBS.” for “FBS. Serial dilutions of antibody-drug conjugates in cell culture media were prepared at 4× working concentrations, and 50 μL of each dilution was added to the 96-well plates.”
# as §3
# as §1, with “37°” for “37 0°”
# as §4, §5
# [10] = test system: pancreatic cancer cells (BxPC3); assay: In vitro potency (CellTiter-Glo, 96 h), BxPC3; details: Homo sapiens, BXPC-3, 96 h
# Description: as §1, §2
# as §1, with “FBS.” for “FBS. Serial dilutions of antibody-drug conjugates in cell culture media were prepared at 4× working concentrations, and 50 μL of each dilution was added to the 96-well plates.”
# as §3
# as §1, with “37°” for “37 0°”
# as §4, §5
# [11] = camptothecin free drug, 96 h, read-out: 786-O IC50
# [12] = camptothecin free drug, read-out: L540cy IC50
# [13] = camptothecin free drug, 96 h, read-out: SU-DHL-4 IC50
# [14] = camptothecin free drug, 96 h, read-out: MOLM-13 IC50
# [15] = camptothecin free drug, read-out: Ls174T IC50
# [16] = camptothecin free drug, read-out: DEL IC50
# [17] = camptothecin free drug, read-out: DELBVR IC50
# [18] = camptothecin free drug, 96 h, read-out: MDAMB231 IC50
# [19] = camptothecin free drug, 96 h, read-out: Karpas299 IC50
# [20] = camptothecin free drug, 96 h, read-out: BxPC3 IC50
smiles,measurement,setting,value
CC[C@@]1(O)C(=O)OCc2c1cc1n(c2=O)Cc2c-1nc1cc(F)c(SC)cc1c2CN [Compound 2at],IC50,[1],0.037 µM
CC[C@@]1(O)C(=O)OCc2c1cc1n(c2=O)Cc2c-1nc1cc3c(cc1c2CNCCCN(C)C(=O)OC(C)(C)C)OCO3 [Compound 7a],IC50,"melanoma cells (A2058); camptothecin free drug, 96 h",0.023 µM
same,IC50,[2]; [11],0.111 µM
same,IC50,[3]; [12],0.052 µM
same,IC50,[4]; [13],0.064 µM
same,IC50,[5]; [14],0.223 µM
same,IC50,Ls174T cells; [15],0.074 µM
same,IC50,[6]; [16],0.025 µM
same,IC50,[7]; [17],0.049 µM
same,IC50,[8]; [18],0.39 µM
same,IC50,[9]; [19],0.135 µM
same,IC50,[10]; [20],0.081 µM
CC[C@@]1(O)C(=O)OCc2c1cc1n(c2=O)Cc2c-1nc1cc3c(cc1c2CN1CCN(CCNC(=O)OC(C)(C)C)CC1)OCO3 [Compound 7af],IC50,"melanoma cells (A2058); camptothecin free drug, 96 h",0.038 µM
same,IC50,[2]; [11],0.177 µM
same,IC50,[3]; [12],0.062 µM
same,IC50,[4]; [13],0.048 µM
same,IC50,[5]; [14],0.11 µM
same,IC50,Ls174T cells; [15],0.08 µM
same,IC50,[6]; [16],0.015 µM
same,IC50,[7]; [17],0.024 µM
same,IC50,[8]; [18],1 µM
same,IC50,[9]; [19],0.127 µM
same,IC50,[10]; [20],0.176 µM
CC[C@@]1(O)C(=O)OCc2c1cc1n(c2=O)Cc2c-1nc1cc3c(cc1c2CNCCN1CCN(C(=O)OC(C)(C)C)CC1)OCO3 [Compound 7f],IC50,"melanoma cells (A2058); camptothecin free drug, 96 h",0.041 µM
same,IC50,[2]; [11],0.13 µM
same,IC50,[3]; [12],0.066 µM
same,IC50,[4]; [13],0.083 µM
same,IC50,[5]; [14],> 1 µM
same,IC50,Ls174T cells; [15],0.069 µM
same,IC50,[6]; [16],0.052 µM
same,IC50,[7]; [17],0.052 µM
same,IC50,[8]; [18],0.776 µM
same,IC50,[9]; [19],0.162 µM
same,IC50,[10]; [20],0.155 µM
CC[C@@]1(O)C(=O)OCc2c1cc1n(c2=O)Cc2c-1nc1cc3c(cc1c2CNCC(O)CN1CCOCC1)OCO3 (stereo partly shown) [Compound 7i],IC50,melanoma cells (A2058),0.033 µM
same,IC50,"[2]; read-out: 786-O IC50, Table 29, CPT free drugs, renal carcinoma cells 786-O, 96 h, CellTiter-Glo",0.118 µM
same,IC50,"[2]; read-out: 786-O IC50, camptothecin free drug, 96 h",0.128 µM
same,IC50,"[3]; read-out: L540cy IC50, Table 29, CPT free drugs, Hodgkin's lymphoma cells L540cy, CellTiter-Glo",0.048 µM
same,IC50,"[3]; read-out: L540cy IC50, camptothecin free drug, 96 h",0.063 µM
same,IC50,"[4]; read-out: SU-DHL-4 IC50, Table 29, CPT free drugs, B-lymphocyte cancer cells SU-DHL4, 96 h, CellTiter-Glo",0.032 µM
same,IC50,"[4]; read-out: SU-DHL-4 IC50, camptothecin free drug, 96 h",0.072 µM
same,IC50,"[5]; read-out: MOLM-13 IC50, Table 29, CPT free drugs, acute myeloid leukemia cells MOLM-13, 96 h, CellTiter-Glo",0.183 µM
same,IC50,"[5]; read-out: MOLM-13 IC50, camptothecin free drug, 96 h",0.312 µM
same,IC50,"Ls174T cells; read-out: Ls174T IC50, Table 29, CPT free drugs, Ls174T cells, CellTiter-Glo",0.11 µM
same,IC50,"Ls174T cells; read-out: Ls174T IC50, camptothecin free drug, 96 h",0.072 µM
same,IC50,"[6]; read-out: DEL IC50, Table 29, CPT free drugs, anaplastic large cell lymphoma cells DEL, CellTiter-Glo",0.009 µM
same,IC50,"[6]; read-out: DEL IC50, camptothecin free drug, 96 h",0.038 µM
same,IC50,"[7]; read-out: DELBVR IC50, Table 29, CPT free drugs, anaplastic large cell lymphoma cells DELBVR, CellTiter-Glo",0.017 µM
same,IC50,"[7]; read-out: DELBVR IC50, camptothecin free drug, 96 h",0.051 µM
same,IC50,"[8]; read-out: MDAMB231 IC50, Table 29, CPT free drugs, breast cancer cells MDA-MB-231, 96 h, CellTiter-Glo",0.183 µM
same,IC50,"[8]; read-out: MDAMB231 IC50, camptothecin free drug, 96 h",1 µM
same,IC50,"[9]; read-out: Karpas299 IC50, Table 29, CPT free drugs, anaplastic large cell lymphoma cells Karpas299, 96 h, CellTiter-Glo",0.084 µM
same,IC50,"[9]; read-out: Karpas299 IC50, camptothecin free drug, 96 h",0.154 µM
same,IC50,"[10]; read-out: BxPC3 IC50, Table 29, CPT free drugs, pancreatic cancer cells BxPC3, 96 h, CellTiter-Glo",0.057 µM
same,IC50,"[10]; read-out: BxPC3 IC50, camptothecin free drug, 96 h",0.106 µM

# Reference: patent publication US20240207427A1, “SELECTIVE DRUG RELEASE FROM INTERNALIZED CONJUGATES OF BIOLOGICALLY ACTIVE COMPOUNDS” (priority 2021, published 2024)
